Assay results as given in ChEMBL document CHEMBL1136032, “Remarkable influence of the aromatic substructure in 9-methoxystrobilurin derivatives on their antifungal activity” (Bioorg Med Chem Lett, 2002).
Active and inactive are the calls of the source. The rule behind the calls is not given here.

Experiments:
Penicillium citrinum [1] = experiment: Compound was tested for the antifungal activity against Penicillium citrinum (R-3703) at a concentration of 0.1 ug/disk; zone of inhibition was measured after 48 hr incubation.; type: functional
Saccharomyces cerevisiae [2] = experiment: Compound was tested for the antifungal activity against Saccharomyces cerevisiae (IAM4861) at a concentration of 10 ug/disk; zone of inhibition was measured after 48 hr incubation; incomplete inhibition observed; type: functional
Aspergillus fumigatus [3] = experiment: Compound was tested for the antifungal activity against Aspergillus fumigatus (R-1301) at a concentration of 10 ug/disk; zone of inhibition was measured after 48 hr incubation.; type: functional
Fusarium solani [4] = experiment: Compound was tested for the antifungal activity against Fusarium solani (R-2800) at a concentration of 0.1 ug/disk; zone of inhibition was measured after 48 hr incubation; NE denotes not effective; type: functional, organism-based
Fusarium solani [5] = experiment: Compound was tested for the antifungal activity against Fusarium solani (R-2800) at a concentration of 1 ug/disk; zone of inhibition was measured after 48 hr incubation; NE denotes not effective; type: functional, organism-based
Candida albicans [6] = experiment: Compound was tested for the antifungal activity against Candida albicans (IFO1594) at a concentration of 1 ug/disk; zone of inhibition was measured after 48 h incubation; incomplete inhibition observed; type: functional
Penicillium citrinum [7] = experiment: Compound was tested for the antifungal activity against Penicillium citrinum (R-3703) at a concentration of 10 ug/disk; zone of inhibition was measured after 48 h incubation.; type: functional
Saccharomyces cerevisiae [8] = experiment: Compound was tested for the antifungal activity against Saccharomyces cerevisiae (IAM4861) at a concentration of 0.1 ug/disk; zone of inhibition was measured after 48 hr incubation; incomplete inhibition observed; type: functional
Aspergillus fumigatus [9] = experiment: Compound was tested for the antifungal activity against Aspergillus fumigatus (R-1301) at a concentration of 0.1 ug/disk; zone of inhibition was measured after 48 hr incubation.; type: functional
Penicillium citrinum [10] = experiment: Compound was tested for the antifungal activity against Penicillium citrinum (R-3703) at a concentration of 1 ug/disk; zone of inhibition was measured after 48 hr incubation.; type: functional
Aspergillus fumigatus [11] = experiment: Compound was tested for the antifungal activity against Aspergillus fumigatus (R-1301) at a concentration of 1 ug/disk; zone of inhibition was measured after 48 hr incubation.; type: functional
Fusarium solani [12] = experiment: Compound was tested for the antifungal activity against Fusarium solani (R-2800) at a concentration of 10 ug/disk; zone of inhibition was measured after 48 hr incubation; NE denotes not effective; type: functional, organism-based
MRC5 [13] = experiment: Cytotoxicity against human diploid embryotic cell line (MRC-5); type: functional, cell-based
Candida albicans [14] = experiment: Compound was tested for the antifungal activity against Candida albicans (IFO1594) at a concentration of 10 ug/disk; zone of inhibition was measured after 48 hr incubation; incomplete inhibition observed; type: functional
Saccharomyces cerevisiae [15] = experiment: Compound was tested for the antifungal activity against Saccharomyces cerevisiae (IAM4861) at a concentration of 1 ug/disk; zone of inhibition was measured after 48 hr incubation; incomplete inhibition observed; type: functional
Candida albicans [16] = experiment: Compound was tested for the antifungal activity against Candida albicans (IFO1594) at a concentration of 0.1 ug/disk; zone of inhibition was measured after 48 hr incubation; +/- denotes slightly effective; type: functional, organism-based
Aspergillus fumigatus [17] = experiment: Compound was tested for the antifungal activity against Aspergillus fumigatus (R-1301) at a concentration of 0.1 ug/disk; zone of inhibition was measured after 48 hr incubation; NE denotes not effective; type: functional, organism-based
Penicillium citrinum [18] = experiment: Compound was tested for the antifungal activity against Penicillium citrinum (R-3703) at a concentration of 0.1 ug/disk; zone of inhibition was measured after 48 hr incubation; +/- denotes slightly effective; type: functional, organism-based
Saccharomyces cerevisiae [19] = experiment: Compound was tested for the antifungal activity against Saccharomyces cerevisiae (IAM4861) at a concentration of 1 ug/disk; zone of inhibition was measured after 48 hr incubation.; type: functional
Saccharomyces cerevisiae [20] = experiment: Compound was tested for the antifungal activity against Saccharomyces cerevisiae (IAM4861) at a concentration of 0.1 ug/disk; zone of inhibition was measured after 48 hr incubation.; type: functional
Saccharomyces cerevisiae [21] = experiment: Compound was tested for the antifungal activity against Saccharomyces cerevisiae (IAM4861) at a concentration of 10 ug/disk; zone of inhibition was measured after 48 hr incubation.; type: functional
Candida albicans [22] = experiment: Compound was tested for the antifungal activity against Candida albicans (IFO1594) at a concentration of 1 ug/disk; zone of inhibition was measured after 48 hr incubation.; type: functional
Candida albicans [23] = experiment: Compound was tested for the antifungal activity against Candida albicans (IFO1594) at a concentration of 10 ug/disk; zone of inhibition was measured after 48 hr incubation.; type: functional
Fusarium solani [24] = experiment: Compound was tested for the antifungal activity against Fusarium solani (R-2800) at a concentration of 10 ug/disk; zone of inhibition was measured after 48 hr incubation; incomplete inhibition observed; type: functional
Fusarium solani [25] = experiment: Compound was tested for the antifungal activity against Fusarium solani (R-2800) at a concentration of 1 ug/disk; zone of inhibition was measured after 48 hr incubation; incomplete inhibition observed; type: functional
Aspergillus fumigatus [26] = experiment: Compound was tested for the antifungal activity against Aspergillus fumigatus (R-1301) at a concentration of 1 ug/disk; zone of inhibition was measured after 48 hr incubation; +/- denotes slightly effective; type: functional, organism-based
Penicillium citrinum [27] = experiment: Compound was tested for the antifungal activity against Penicillium citrinum (R-3703) at a concentration of 10 ug/disk; the diameter of each inhibition zone was measured after 48 hr incubation; NE denotes not effective; type: functional, organism-based
Saccharomyces cerevisiae [28] = experiment: Compound was tested for the antifungal activity against Saccharomyces cerevisiae (IAM4861) at a concentration of 0.1 ug/disk; zone of inhibition was measured after 48 hr incubation; +/- denotes slightly effective; type: functional, organism-based
Penicillium citrinum [29] = experiment: Compound was tested for the antifungal activity against Penicillium citrinum (R-3703) at a concentration of 1 ug/disk; zone of inhibition was measured after 48 hr incubation; NE denotes not effective; type: functional, organism-based
Candida albicans [30] = experiment: Compound was tested for the antifungal activity against Candida albicans (IFO1594) at a concentration of 0.1 ug/disk; zone of inhibition was measured after 48 h incubation; NE denotes not effective; type: functional, organism-based
Penicillium citrinum [31] = experiment: Compound was tested for the antifungal activity against Penicillium citrinum (R-3703) at a concentration of 0.1 ug/disk; zone of inhibition was measured after 48 hr incubation; NE denotes not effective; type: functional, organism-based
Aspergillus fumigatus [32] = experiment: Compound was tested for the antifungal activity against Aspergillus fumigatus (R-1301) at a concentration of 0.1 ug/disk; zone of inhibition was measured after 48 hr incubation; +/- denotes slightly effective; type: functional, organism-based
Aspergillus fumigatus [33] = experiment: Compound was tested for the antifungal activity against Aspergillus fumigatus (R-1301) at a concentration of 10 ug/disk; zone of inhibition was measured after 48 hr incubation; type: functional
Candida albicans [34] = experiment: Compound was tested for the antifungal activity against Candida albicans (IFO1594) at a concentration of 1 ug/disk; zone of inhibition was measured after 48 hr incubation; type: functional
Saccharomyces cerevisiae [35] = experiment: Compound was tested for the antifungal activity against Saccharomyces cerevisiae (IAM4861) at a dose of 1 ug/disk; the diameter of each inhibition zone was measured after 48 hr incubation.; type: functional
MRC5 [36] = experiment: Cytotoxicity against the human diploid embryotic cell line (MRC-5); type: functional, cell-based

| Compound | Diameter of inhibition zone (Penicillium citrinum [1]) | Diameter of inhibition zone (Saccharomyces cerevisiae [2]) | Diameter of inhibition zone (Aspergillus fumigatus [3]) | Diameter of inhibition zone (Fusarium solani [4]) | Diameter of inhibition zone (Fusarium solani [5]) | Diameter of inhibition zone (Candida albicans [6]) | Diameter of inhibition zone (Penicillium citrinum [7]) | Diameter of inhibition zone (Saccharomyces cerevisiae [8]) | Diameter of inhibition zone (Penicillium citrinum [10]) | Diameter of inhibition zone (Aspergillus fumigatus [11]) | Diameter of inhibition zone (Fusarium solani [12]) | IC50 (MRC5 [13]; Homo sapiens, MRC5) | Diameter of inhibition zone (Candida albicans [14]) | Diameter of inhibition zone (Saccharomyces cerevisiae [15]) | Diameter of inhibition zone (Candida albicans [16]) | Diameter of inhibition zone (Aspergillus fumigatus [17]) | Diameter of inhibition zone (Penicillium citrinum [18]) | Diameter of inhibition zone (Saccharomyces cerevisiae [21]) | Diameter of inhibition zone (Candida albicans [23]) | further results |
| --- | --- | --- | --- | --- | --- | --- | --- | --- | --- | --- | --- | --- | --- | --- | --- | --- | --- | --- | --- | --- |
| CO\C=C(C(=O)OC)/C(C)=C(\C=C\c1ccc(OC)cc1)OC | 9 mm | 42 mm | 29 mm | inactive | inactive | 27 mm | 29 mm | 28 mm | 23 mm | 18 mm | inactive | 35 µM | 33 mm | 36 mm | Weak activity | – | – | – | – | Diameter of inhibition zone (Aspergillus fumigatus [9]): 4 mm |
| CO\C=C(C(=O)OC)/C(C)=C(\C=C\c1cccc(OC)c1)OC | 8 mm | 35 mm | 23 mm | inactive | inactive | 27 mm | 25 mm | 16 mm | 19 mm | 9 mm | inactive | 27 µM | 32 mm | 29 mm | Weak activity | inactive | – | – | – | – |
| CO\C=C(C(=O)OC)/C(C)=C(\C=C\c1ccc2ccccc2c1)OC | – | – | 18 mm | inactive | – | – | 19 mm | – | 14 mm | 13 mm | – | > 100 µM | – | – | Weak activity | – | Weak activity | 37 mm | 26 mm | Diameter of inhibition zone (Saccharomyces cerevisiae [19]): 30 mm; Diameter of inhibition zone (Aspergillus fumigatus [9]): 4 mm; Diameter of inhibition zone (Saccharomyces cerevisiae [20]): 12 mm; Diameter of inhibition zone (Candida albicans [22]): 16 mm; Diameter of inhibition zone (Fusarium solani [24]): 13 mm; Diameter of inhibition zone (Fusarium solani [25]): 14 mm |
| CO\C=C(C(=O)OC)/C(C)=C(\C=C\c1ccc2c(c1)OCO2)OC | – | 42 mm | 22 mm | inactive | inactive | 22 mm | 18 mm | 8 mm | 10 mm | – | inactive | > 100 µM | 32 mm | 36 mm | Weak activity | inactive | Weak activity | – | – | Diameter of inhibition zone (Aspergillus fumigatus [26]): Weak activity |
| C=CC(C)(C)O[C@H]1COc2ccc(/C=C/C(OC)=C(C)\C(=C/OC)C(=O)OC)cc2OC1(C)C | – | – | 10 mm | inactive | – | – | – | – | – | 8 mm | – | 0.36 µM | – | – | – | – | – | 25 mm | 22 mm | Diameter of inhibition zone (Penicillium citrinum [27]): inactive; Diameter of inhibition zone (Saccharomyces cerevisiae [28]): Weak activity; Diameter of inhibition zone (Penicillium citrinum [29]): inactive; Diameter of inhibition zone (Saccharomyces cerevisiae [19]): 20 mm; Diameter of inhibition zone (Candida albicans [30]): inactive; Diameter of inhibition zone (Penicillium citrinum [31]): inactive; Diameter of inhibition zone (Candida albicans [22]): 17 mm; Diameter of inhibition zone (Aspergillus fumigatus [32]): Weak activity; Diameter of inhibition zone (Fusarium solani [24]): 25 mm; Diameter of inhibition zone (Fusarium solani [25]): 19 mm |
| NYSTATIN [listing 1 of 2 here] | – | – | 14 mm | – | – | – | 12 mm | – | – | – | inactive | – | – | – | – | – | – | 18 mm | 16 mm | – |
| NYSTATIN [listing 2 of 2 here] | – | – | – | – | – | – | – | – | – | – | – | – | – | – | – | – | – | – | – | IC50 (MRC5 [13]; mrc5): 34 µM |
| CO\C=C(C(=O)OC)/C(C)=C(\C=C\c1cccc2ccccc12)OC | – | – | – | inactive | inactive | – | 17 mm | – | 12 mm | 10 mm | inactive | > 100 µM | – | – | – | inactive | Weak activity | 22 mm | 15 mm | Diameter of inhibition zone (Aspergillus fumigatus [33]): 14 mm; Diameter of inhibition zone (Candida albicans [34]): 5 mm; Diameter of inhibition zone (Saccharomyces cerevisiae [20]): 5 mm; Diameter of inhibition zone (Candida albicans [30]): inactive; Diameter of inhibition zone (Saccharomyces cerevisiae [35]): 18 mm |
| CO\C=C(C(=O)OC)/C(C)=C(\C=C\c1ccccc1)OC [9-METHOXYSTROBILURIN A] | 4 mm | 49 mm | 31 mm | inactive | inactive | 28 mm | 28 mm | 17 mm | 18 mm | 15 mm | inactive | – | 36 mm | 40 mm | incomplete inhibition | – | – | – | – | IC50 (MRC5 [36]): 34 µM; Diameter of inhibition zone (Aspergillus fumigatus [32]): slightly effective |
| CO\C=C(C(=O)OC)/C(C)=C(\C=C\c1ccc(OC)c(OC)c1)OC | – | 43 mm | 20 mm | inactive | inactive | 26 mm | 22 mm | 20 mm | 13 mm | – | inactive | 12 µM | 34 mm | 38 mm | Weak activity | inactive | Weak activity | – | – | Diameter of inhibition zone (Aspergillus fumigatus [26]): Weak activity |
